From PMC4503722, “Novel Phenotypic Outcomes Identified for a Public Collection of Approved Drugs from a Publicly Accessible Panel of Assays” (PLoS ONE, 2015)
Like-named read-outs stand apart in the source and are kept apart here.

Columns and labels:
[1] = FAERS, ref [45], cited from earlier work; for # of Specific AE Occurrence With Drug A With Drug B: with methotrexate; for # of Specific AE Occurrence With Drug A Without Drug B: without methotrexate; for Adjusted Z-Score: Drug A with vs without methotrexate
INS-1E cells [2] = type: cell-based, rat
[3] = tested on: tonic K+ channel activity in INS-1E cells; assay: cells; type: cell-based, rat
INS-1E cells [4] = assay: cells; type: cell-based, rat
HeLa cells = assay: cells; type: cell-based
[5] = tested on: nuclear β-catenin in C2C12 cells; assay: cells; type: cell-based; settings: Mus musculus, C2C12; read-out: Wnt Pathway
DLD-1 = assay: cells; type: cell-based; settings: Homo sapiens; basal; DLD-1; read-out: Basal_Viability ATP DLD-1
HCT116 = assay: cells; type: cell-based; settings: Homo sapiens, HCT-116, basal; HCT116; read-out: Basal_Viability ATP HCT116
[6] = tested on: HCT116 cells treated with a GSK3β inhibitor; assay: cells; type: cell-based; settings: Homo sapiens, HCT-116; HCT116 pretreated with GSK3b inhibitor; read-out: GSK3b inh pretreated_Viability ATP HCT116
SW480 = assay: cells; type: cell-based; settings: Homo sapiens; basal; SW480; read-out: Basal_Viability ATP SW480
NCI-H716 cells = assay: cells; type: cell-based, Human
STC-1 cell line = type: cell-based, mouse; settings: assay number 13
[7] = assay number 10, 0.1 mM glucose
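For 5mMGluc INS1E SecretionMod IC50/EC50 in this document: secreted insulin quantified by homogeneous immunoassay.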

COc1cccc2c1C(=O)c1c(O)c3c(c(O)c1C2=O)C[C@@](O)(C(=O)CO)C[C@@H]3O[C@H]1C[C@H](N)[C@H](O)[C@H](C)O1 [Doxorubicin]
# of Specific AE Occurrence With Drug A With Drug B ([1]; AE BONE DISORDER): 49 | # of Specific AE Occurrence With Drug A Without Drug B ([1]; AE BONE DISORDER): 912

Cc1ccc(CCn2c3c(c4cc(Cl)ccc42)CN(C)CC3)cn1 [NCGC00253726-01]
0.1mMGluc_INS1E SecretionMod Act IC50/EC50 (INS-1E cells [2]; assay number 9, 0.1 mM glucose): > 33.33 µM | 0.1mMGluc_INS1E FluxOR IC50/EC50 [3, 7]: 39.9057 µM | 5mMGluc_INS1E SecretionMod IC50/EC50 (INS-1E cells [4]; assay number 8, 5 mM glucose): 4.201 µM | Hela CellCycMod PI 2N IC50/EC50 (HeLa cells; assay number 14, 2N): > 10 µM | Hela CellCycMod PI S Phase IC50/EC50 (HeLa cells; assay number 15, S phase): > 10 µM | Hela CellCycMod PI 4N IC50/EC50 (HeLa cells; assay number 16, 4N): > 10 µM | Hela CellCycMod PI MI IC50/EC50 (HeLa cells; assay number 17, MI): > 10 µM | Hela CellCycMod PI Cell Number IC50/EC50 (HeLa cells; assay number 18, cell number): > 10 µM

N[C@@H](Cc1ccc(N(CCCl)CCCl)cc1)C(=O)O [Melphalan]
EC50 [5]: > 10 µM | IC50 (DLD-1): > 20 µM | IC50 (HCT116): > 20 µM | EC50 (INS-1E cells [4]; Rattus norvegicus, INS-1E, read-out: Insulin Secretion): > 10 µM | Adjusted Z-Score ([1]; AE BONE DISORDER): -3.0915 | # of Specific AE Occurrence With Drug A With Drug B ([1]; AE BONE DISORDER): 0 | # of Specific AE Occurrence With Drug A Without Drug B ([1]; AE BONE DISORDER): 731 | Adjusted Z-Score ([1]; AE OSTEOMYELITIS): -3.729 | # of Specific AE Occurrence With Drug A With Drug B ([1]; AE OSTEOMYELITIS): 9 | # of Specific AE Occurrence With Drug A Without Drug B ([1]; AE OSTEOMYELITIS): 479 | Adjusted Z-Score ([1]; AE OSTEONECROSIS OF JAW): -3.716 | # of Specific AE Occurrence With Drug A With Drug B ([1]; AE OSTEONECROSIS OF JAW): 17 | # of Specific AE Occurrence With Drug A Without Drug B ([1]; AE OSTEONECROSIS OF JAW): 557 | Adjusted Z-Score ([1]; AE OSTEONECROSIS): -3.771 | # of Specific AE Occurrence With Drug A With Drug B ([1]; AE OSTEONECROSIS): 1 | # of Specific AE Occurrence With Drug A Without Drug B ([1]; AE OSTEONECROSIS): 786 | IC50 [6]: 15.4 µM | EC50 (HeLa cells; Homo sapiens, S2 Table, HeLa, 20 = no response at highest concentration, read-out: CellCycle G2/M): 5.36 µM | IC50 (SW480): > 20 µM | EC50 (NCI-H716 cells; Homo sapiens, NCI-H716, read-out: GLP 1 Secretion): > 10 µM

CCN(CCCCOC(=O)c1ccc(OC)c(OC)c1)C(C)Cc1ccc(OC)cc1.Cl (stereo not drawn) [NCGC00018277-06]
0.1mMGluc_INS1E SecretionMod Act IC50/EC50 (INS-1E cells [2]; assay number 9, 0.1 mM glucose): > 33.33 µM | 0.1mMGluc_INS1E FluxOR IC50/EC50 [3, 7]: 1.737 µM | 5mMGluc_INS1E SecretionMod IC50/EC50 (INS-1E cells [4]; assay number 8, 5 mM glucose): 1.952 µM | Hela CellCycMod PI 2N IC50/EC50 (HeLa cells; assay number 14, 2N): > 10 µM | Hela CellCycMod PI S Phase IC50/EC50 (HeLa cells; assay number 15, S phase): > 10 µM | Hela CellCycMod PI 4N IC50/EC50 (HeLa cells; assay number 16, 4N): > 10 µM | Hela CellCycMod PI MI IC50/EC50 (HeLa cells; assay number 17, MI): > 10 µM | Hela CellCycMod PI Cell Number IC50/EC50 (HeLa cells; assay number 18, cell number): > 10 µM

CC(CC1c2ccccc2CCc2ccccc21)CN(C)C (stereo not drawn) [NCGC00274277-01]
0.1mMGluc_INS1E SecretionMod Act IC50/EC50 (INS-1E cells [2]): > 33.33 µM | 0.1mMGluc_INS1E FluxOR IC50/EC50 [3]: 19.9984 µM | 5mMGluc_INS1E SecretionMod IC50/EC50 (INS-1E cells [4]): 3.6382 µM | Hela CellCycMod PI 2N IC50/EC50 (HeLa cells): > 10 µM | Hela CellCycMod PI 4N IC50/EC50 (HeLa cells): > 10 µM | Hela CellCycMod PI Cell Number IC50/EC50 (HeLa cells): > 10 µM | Hela CellCycMod PI MI IC50/EC50 (HeLa cells): > 10 µM | Hela CellCycMod PI S Phase IC50/EC50 (HeLa cells): > 10 µM

[H]/N=C(\N/C(=N/[H])NCCCCCCNC(=N)NC(=N)Nc1ccc(Cl)cc1)Nc1ccc(Cl)cc1 [Chlorhexidine]
Adjusted Z-Score ([1]; AE OSTEONECROSIS): -2.347 | # of Specific AE Occurrence With Drug A With Drug B ([1]; AE OSTEONECROSIS): 31 | # of Specific AE Occurrence With Drug A Without Drug B ([1]; AE OSTEONECROSIS): 899

Clc1ccc2c(c1)CCc1cccnc1C2=C1CCNCC1 [NCGC00159325-05]
0.1mMGluc_INS1E SecretionMod Act IC50/EC50 (INS-1E cells [2]; assay number 9, 0.1 mM glucose): > 33.33 µM | 0.1mMGluc_INS1E FluxOR IC50/EC50 [3, 7]: > 33.3333 µM | 5mMGluc_INS1E SecretionMod IC50/EC50 (INS-1E cells [4]; assay number 8, 5 mM glucose): 7.105 µM | mSTC-1 GLP1 Secretion IC50/EC50 (STC-1 cell line): > 40 µM | hNCI-H716 GLP1 Secretion IC50/EC50 (NCI-H716 cells; assay number 12): > 40 µM
